Measured values as given in publication PMC5218480 (PLoS ONE, 2017).

System: MV-4-11 cells
Assay: Gene expression microarray analysis (Affymetrix PrimeView) and GSEA
Assay type: cell-based, human
Parameters: RFU PODN (11730768_x_at) / Fold change /veh PODN (11730768_x_at) / RFU LINC00158 (11744669_a_at) / Fold change /veh LINC00158 (11744669_a_at) / RFU DUSP10 (11751237_a_at) / Fold change /veh DUSP10 (11751237_a_at) / RFU ID3 (11757404_x_at) / Fold change /veh ID3 (11757404_x_at) / RFU PLEKHG5 (11737974_s_at) / Fold change /veh PLEKHG5 (11737974_s_at) / RFU LRRC4B (11730491_at) / Fold change /veh LRRC4B (11730491_at) / RFU GIMAP4 (11747438_a_at) / Fold change /veh GIMAP4 (11747438_a_at) / RFU KRT8 (11758183_x_at) / Fold change /veh KRT8 (11758183_x_at) / RFU CNN1 (11734310_a_at) / Fold change /veh CNN1 (11734310_a_at) / RFU VPS37D (11726825_at) / Fold change /veh VPS37D (11726825_at) / RFU C10orf10 (11716522_x_at) / Fold change /veh C10orf10 (11716522_x_at) / RFU KIR2DL2 /// KIR2DL4 /// KIR2DL5A /// KIR2DL5B /// KIR2DS1 /// KIR2DS2 /// KIR2DS3 /// KIR2DS4 /// KIR3DL3 /// KIR3DL3 /// KIR3DS1 (11738374_at) / Fold change /veh KIR2DL2 /// KIR2DL4 /// KIR2DL5A /// KIR2DL5B /// KIR2DS1 /// KIR2DS2 /// KIR2DS3 /// KIR2DS4 /// KIR3DL3 /// KIR3DL3 /// KIR3DS1 (11738374_at) / RFU C1QL1 (11718748_at) / Fold change /veh C1QL1 (11718748_at) / RFU TMPRSS4 (11747572_a_at) / Fold change /veh TMPRSS4 (11747572_a_at) / RFU HAMP (11756126_x_at) / Fold change /veh HAMP (11756126_x_at) / RFU RNFT2 (11725882_a_at) / Fold change /veh RNFT2 (11725882_a_at) / RFU NR4A2 (11747474_a_at) / Fold change /veh NR4A2 (11747474_a_at) / RFU ABCC12 (11746883_a_at) / Fold change /veh ABCC12 (11746883_a_at) / RFU TMEM136 (11760407_x_at) / Fold change /veh TMEM136 (11760407_x_at) / RFU CLDN22 /// WWC2 (11732394_at) / Fold change /veh CLDN22 /// WWC2 (11732394_at) / RFU HLA-DPB1 (11760878_x_at) / Fold change /veh HLA-DPB1 (11760878_x_at) / RFU SPINT1 (11716480_a_at) / Fold change /veh SPINT1 (11716480_a_at) / RFU GAP43 (11754022_s_at) / Fold change /veh GAP43 (11754022_s_at) / RFU A4GNT (11735810_at) / Fold change /veh A4GNT (11735810_at) / RFU PRB3 (11715151_x_at) / Fold change /veh PRB3 (11715151_x_at) / RFU TUBB4B (11761932_at) / Fold change /veh TUBB4B (11761932_at) / RFU CAPN14 (11732068_a_at) / Fold change /veh CAPN14 (11732068_a_at) / RFU TMCC2 (11721928_a_at) / Fold change /veh TMCC2 (11721928_a_at) / RFU IRGQ (11745062_a_at) / Fold change /veh IRGQ (11745062_a_at) / RFU FAM174B (11720279_a_at) / Fold change /veh FAM174B (11720279_a_at) / RFU TMPRSS4 (11748680_a_at) / Fold change /veh TMPRSS4 (11748680_a_at) / RFU FAM212B (11763350_a_at) / Fold change /veh FAM212B (11763350_a_at) / RFU PLEKHG5 (11743358_a_at) / Fold change /veh PLEKHG5 (11743358_a_at) / RFU ZSCAN30 (11745921_a_at) / Fold change /veh ZSCAN30 (11745921_a_at) / RFU CMKLR1 (11741424_a_at) / Fold change /veh CMKLR1 (11741424_a_at) / RFU LOC101060620 /// MAPK8IP1 (11723275_at) / Fold change /veh LOC101060620 /// MAPK8IP1 (11723275_at) / RFU SPTSSB (11747773_x_at) / Fold change /veh SPTSSB (11747773_x_at) / RFU PRSS12 (11739890_at) / Fold change /veh PRSS12 (11739890_at) / RFU BIN1 (11741810_x_at) / Fold change /veh BIN1 (11741810_x_at) / RFU WNT11 (11732464_a_at) / Fold change /veh WNT11 (11732464_a_at) / RFU C10orf10 (11716521_a_at) / Fold change /veh C10orf10 (11716521_a_at) / RFU C5orf56 (11738089_at) / Fold change /veh C5orf56 (11738089_at) / RFU CYB561 (11721691_x_at) / Fold change /veh CYB561 (11721691_x_at) / RFU ANKRD19P (11752326_a_at) / Fold change /veh ANKRD19P (11752326_a_at) / RFU OR2T12 /// OR2T33 /// OR2T8 (11738714_s_at) / Fold change /veh OR2T12 /// OR2T33 /// OR2T8 (11738714_s_at) / RFU VCAN (11748164_a_at) / Fold change /veh VCAN (11748164_a_at) / RFU JSRP1 (11732532_at) / Fold change /veh JSRP1 (11732532_at) / RFU KRTAP10-11 (11738290_x_at) / Fold change /veh KRTAP10-11 (11738290_x_at) / RFU MYO3A (11730013_a_at) / Fold change /veh MYO3A (11730013_a_at) / RFU EBF3 (11725865_a_at) / Fold change /veh EBF3 (11725865_a_at) / RFU CAMK2N1 (11719241_x_at) / Fold change /veh CAMK2N1 (11719241_x_at) / RFU C5orf56 (11738088_a_at) / Fold change /veh C5orf56 (11738088_a_at) / RFU OLFML3 (11715873_a_at) / Fold change /veh OLFML3 (11715873_a_at) / RFU LOC100653217 /// NTM (11731650_a_at) / Fold change /veh LOC100653217 /// NTM (11731650_a_at) / RFU MAPK11 (11762145_a_at) / Fold change /veh MAPK11 (11762145_a_at) / RFU FIZ1 (11724087_x_at) / Fold change /veh FIZ1 (11724087_x_at) / RFU OASL (11726364_x_at) / Fold change /veh OASL (11726364_x_at) / RFU SOX15 (11748057_x_at) / Fold change /veh SOX15 (11748057_x_at) / RFU CD79A (11719716_a_at) / Fold change /veh CD79A (11719716_a_at) / RFU HIST1H1D (11736915_at) / Fold change /veh HIST1H1D (11736915_at) / RFU CASKIN2 (11723855_a_at) / Fold change /veh CASKIN2 (11723855_a_at) / RFU LOC730098 (11760151_x_at) / Fold change /veh LOC730098 (11760151_x_at) / RFU OR4N2 (11742367_at) / Fold change /veh OR4N2 (11742367_at) / RFU PRRT2 (11749266_a_at) / Fold change /veh PRRT2 (11749266_a_at) / RFU SNX32 (11753110_a_at) / Fold change /veh SNX32 (11753110_a_at) / RFU CDHR5 (11726645_a_at) / Fold change /veh CDHR5 (11726645_a_at) / RFU RCAN1 (11760418_a_at) / Fold change /veh RCAN1 (11760418_a_at) / RFU FAM167A (11723789_a_at) / Fold change /veh FAM167A (11723789_a_at) / RFU FAM26E (11764081_at) / Fold change /veh FAM26E (11764081_at) / RFU ISYNA1 (11749810_s_at) / Fold change /veh ISYNA1 (11749810_s_at) / RFU ACY1 (11761880_at) / Fold change /veh ACY1 (11761880_at) / RFU 11764098_at / Fold change /veh 11764098_at / RFU SAMD14 (11745864_x_at) / Fold change /veh SAMD14 (11745864_x_at) / RFU NPB (11741838_a_at) / Fold change /veh NPB (11741838_a_at) / RFU TMPRSS6 (11731388_a_at) / Fold change /veh TMPRSS6 (11731388_a_at) / RFU KRTAP10-2 (11738614_at) / Fold change /veh KRTAP10-2 (11738614_at) / RFU ARHGAP8 /// PRR5-ARHGAP8 (11727945_x_at) / Fold change /veh ARHGAP8 /// PRR5-ARHGAP8 (11727945_x_at) / RFU KRTAP5-7 /// NADSYN1 (11734609_at) / Fold change /veh KRTAP5-7 /// NADSYN1 (11734609_at) / RFU RASL12 (11751679_a_at) / Fold change /veh RASL12 (11751679_a_at) / RFU CDKN2B (11736163_a_at) / Fold change /veh CDKN2B (11736163_a_at) / RFU PRF1 (11729649_at) / Fold change /veh PRF1 (11729649_at) / RFU, ZNF638 /// ZNF638-IT1 / Fold change vs veh, ZNF638 /// ZNF638-IT1 / RFU, PANK3 / Fold change vs veh, PANK3 / RFU, SH3YL1 / Fold change vs veh, SH3YL1 / RFU, ZEB2 / Fold change vs veh, ZEB2 / RFU, NRIP1 / Fold change vs veh, NRIP1 / RFU, PTTG1IP / Fold change vs veh, PTTG1IP / RFU, CAPN2 / Fold change vs veh, CAPN2 / RFU, MED14 / Fold change vs veh, MED14 / RFU, SNORA58 / Fold change vs veh, SNORA58 / RFU, C1orf63 / Fold change vs veh, C1orf63 / RFU, LRRFIP1 / Fold change vs veh, LRRFIP1 / RFU, NDUFAF7 / Fold change vs veh, NDUFAF7 / RFU, SLC12A2 / Fold change vs veh, SLC12A2 / RFU, IBTK / Fold change vs veh, IBTK / RFU, ESF1 / Fold change vs veh, ESF1 / Fold change vs veh, TMEM50B / RFU, TAOK1 / Fold change vs veh, TAOK1 / RFU, ACBD3 / Fold change vs veh, ACBD3 / RFU, TMA16 / Fold change vs veh, TMA16 / RFU, RWDD3 / Fold change vs veh, RWDD3 / RFU, BCAT1 / Fold change vs veh, BCAT1 / RFU, EDEM3 / Fold change vs veh, EDEM3 / RFU, TMEM33 / Fold change vs veh, TMEM33 / RFU, WDR75 / Fold change vs veh, WDR75 / RFU, AHCTF1 / Fold change vs veh, AHCTF1 / RFU, TFRC / Fold change vs veh, TFRC / RFU, ZDHHC17 / Fold change vs veh, ZDHHC17 / RFU, NOM1 / Fold change vs veh, NOM1 / RFU, ARL8B / Fold change vs veh, ARL8B / RFU, ZBTB11 / Fold change vs veh, ZBTB11 / RFU, TAMM41 / Fold change vs veh, TAMM41 / RFU, KIAA1704 /// LOC100996395 / Fold change vs veh, KIAA1704 /// LOC100996395 / RFU, ING1 / Fold change vs veh, ING1 / RFU, TRMT61B / Fold change vs veh, TRMT61B / RFU, FUBP3 / Fold change vs veh, FUBP3 / RFU, TP53 / Fold change vs veh, TP53 / RFU, TNKS2 / Fold change vs veh, TNKS2 / RFU, ZFP14 / Fold change vs veh, ZFP14 / RFU, ACTR2 / Fold change vs veh, ACTR2 / RFU, PPP3R1 / Fold change vs veh, PPP3R1 / RFU, PIK3R1 / Fold change vs veh, PIK3R1 / RFU, HNRNPA1 / Fold change vs veh, HNRNPA1 / RFU, RNF170 / Fold change vs veh, RNF170 / RFU, ZNF28 / Fold change vs veh, ZNF28 / RFU, RNGTT / Fold change vs veh, RNGTT / RFU, OGT / Fold change vs veh, OGT / RFU, BRD1 / Fold change vs veh, BRD1 / RFU, MARS / Fold change vs veh, MARS / RFU, ZNF655 / Fold change vs veh, ZNF655 / RFU, FAHD1 / Fold change vs veh, FAHD1 / RFU, BDP1 / Fold change vs veh, BDP1 / RFU, LRRCC1 / Fold change vs veh, LRRCC1 / RFU, ARID1A / Fold change vs veh, ARID1A / RFU, ZNF146 / Fold change vs veh, ZNF146 / RFU, ZNF330 / Fold change vs veh, ZNF330 / RFU, GPN3 / Fold change vs veh, GPN3 / RFU, C9orf123 / Fold change vs veh, C9orf123 / RFU, N4BP2L2 / Fold change vs veh, N4BP2L2 / RFU, ARFIP1 / Fold change vs veh, ARFIP1 / RFU, FAM179B / Fold change vs veh, FAM179B / RFU, BCL10 / Fold change vs veh, BCL10 / RFU, UHRF1BP1L / Fold change vs veh, UHRF1BP1L / RFU, BET1 / Fold change vs veh, BET1 / RFU, CNOT2 / Fold change vs veh, CNOT2 / RFU, ZNF268 / Fold change vs veh, ZNF268 / Fold change vs veh, ZNF507 / RFU, DGCR2 / Fold change vs veh, DGCR2 / RFU, WDSUB1 / Fold change vs veh, WDSUB1 / Fold change vs veh, HSP90B1 /// MIR3652 / RFU, ADSS / Fold change vs veh, ADSS / RFU, GK / Fold change vs veh, GK / RFU, ZNF148 / Fold change vs veh, ZNF148 / RFU, TAF9 / Fold change vs veh, TAF9 / RFU, SLC1A5 / Fold change vs veh, SLC1A5 / RFU, SLMO2 / Fold change vs veh, SLMO2 / RFU, ABCC4 / Fold change vs veh, ABCC4 / RFU, LOC101060439 /// RAP1B / Fold change vs veh, LOC101060439 /// RAP1B / RFU, RFX7 / Fold change vs veh, RFX7 / RFU, GTPBP10 / Fold change vs veh, GTPBP10 / RFU, CNEP1R1 / Fold change vs veh, CNEP1R1 / RFU, BIVM-ERCC5 /// ERCC5 / Fold change vs veh, BIVM-ERCC5 /// ERCC5 / RFU, ILF3 / Fold change vs veh, ILF3 / RFU 11762660_at / Fold change /veh 11762660_at / RFU VCAN (11757783_s_at) / Fold change /veh VCAN (11757783_s_at) / RFU DDX43 (11728927_at) / Fold change /veh DDX43 (11728927_at) / RFU KRT8 (11758188_x_at) / Fold change /veh KRT8 (11758188_x_at) / RFU NKD1 (11759106_at) / Fold change /veh NKD1 (11759106_at) / RFU SRD5A1 (11742802_a_at) / Fold change /veh SRD5A1 (11742802_a_at) / RFU TPSAB1 /// TPSB2 (11721975_s_at) / Fold change /veh TPSAB1 /// TPSB2 (11721975_s_at) / RFU GSTM3 (11746129_a_at) / Fold change /veh GSTM3 (11746129_a_at) / RFU IL23R (11737362_x_at) / Fold change /veh IL23R (11737362_x_at) / RFU TMEM51 (11727254_a_at) / Fold change /veh TMEM51 (11727254_a_at) / RFU PIWIL2 (11732686_x_at) / Fold change /veh PIWIL2 (11732686_x_at) / RFU ORM1 (11744905_x_at) / Fold change /veh ORM1 (11744905_x_at) / RFU CCDC152 (11743942_at) / Fold change /veh CCDC152 (11743942_at) / RFU ECM1 (11717891_a_at) / Fold change /veh ECM1 (11717891_a_at) / RFU IL23R (11748794_a_at) / Fold change /veh IL23R (11748794_a_at) / RFU TNFAIP8L3 (11732012_x_at) / Fold change /veh TNFAIP8L3 (11732012_x_at) / RFU MBOAT4 (11741988_at) / Fold change /veh MBOAT4 (11741988_at) / RFU 11764193_at / Fold change /veh 11764193_at / RFU TMEM53 (11763286_at) / Fold change /veh TMEM53 (11763286_at) / RFU MAGEB2 (11727129_at) / Fold change /veh MAGEB2 (11727129_at) / RFU TMEM200A (11744735_a_at) / Fold change /veh TMEM200A (11744735_a_at) / RFU CCDC152 (11751479_a_at) / Fold change /veh CCDC152 (11751479_a_at) / RFU FAM211A (11726209_a_at) / Fold change /veh FAM211A (11726209_a_at) / RFU RGS16 (11746705_a_at) / Fold change /veh RGS16 (11746705_a_at) / RFU VCAN (11755009_s_at) / Fold change /veh VCAN (11755009_s_at) / RFU RHOB (11743442_s_at) / Fold change /veh RHOB (11743442_s_at) / RFU RGS16 (11720943_a_at) / Fold change /veh RGS16 (11720943_a_at) / RFU RGS16 (11720944_at) / Fold change /veh RGS16 (11720944_at) / RFU, VPS4B / Fold change vs veh, VPS4B / RFU, CREB1 / Fold change vs veh, CREB1 / RFU, DNAJC13 / Fold change vs veh, DNAJC13 / RFU, GNAQ / Fold change vs veh, GNAQ / RFU, CDK5R1 / Fold change vs veh, CDK5R1 / RFU, ZRANB3 / Fold change vs veh, ZRANB3 / RFU, CUL4A / Fold change vs veh, CUL4A / RFU, CCNY / Fold change vs veh, CCNY / RFU, UFL1 / Fold change vs veh, UFL1 / RFU, COG3 / Fold change vs veh, COG3 / RFU, DIAPH2 / Fold change vs veh, DIAPH2 / RFU, SKA2 / Fold change vs veh, SKA2 / RFU, AFF3 / Fold change vs veh, AFF3 / RFU, LMF1 / Fold change vs veh, LMF1 / RFU, IPO11 / Fold change vs veh, IPO11 / RFU, DFFB / Fold change vs veh, DFFB / RFU, FOXP1 / Fold change vs veh, FOXP1 / RFU, CARD8 / Fold change vs veh, CARD8 / RFU, STRN3 / Fold change vs veh, STRN3 / RFU, ADK / Fold change vs veh, ADK / RFU, RASSF2 / Fold change vs veh, RASSF2 / RFU, WIPF1 / Fold change vs veh, WIPF1 / RFU, LARP1B / Fold change vs veh, LARP1B / RFU, RASA1 / Fold change vs veh, RASA1 / RFU, RB1 / Fold change vs veh, RB1 / RFU, PPFIA1 / Fold change vs veh, PPFIA1 / RFU, MAT2A / Fold change vs veh, MAT2A / RFU, CCT5 / Fold change vs veh, CCT5 / RFU, WDR92 / Fold change vs veh, WDR92 / RFU, CUX1 / Fold change vs veh, CUX1 / RFU, TTC7A / Fold change vs veh, TTC7A / RFU, TMEM135 / Fold change vs veh, TMEM135 / RFU, DEPTOR / Fold change vs veh, DEPTOR / RFU, CPM / Fold change vs veh, CPM / RFU, DNAJB6 / Fold change vs veh, DNAJB6 / RFU, CACNA2D3 / Fold change vs veh, CACNA2D3 / RFU, DTX4 / Fold change vs veh, DTX4 / RFU, TFCP2 / Fold change vs veh, TFCP2 / RFU, GMCL1 /// GMCL1P1 / Fold change vs veh, GMCL1 /// GMCL1P1 / RFU, AEBP2 / Fold change vs veh, AEBP2 / RFU, SNHG1 /// SNORD22 /// SNORD25 /// SNORD26 /// SNORD27 /// SNORD28 /// SNORD29 /// SNORD31 / Fold change vs veh, SNHG1 /// SNORD22 /// SNORD25 /// SNORD26 /// SNORD27 /// SNORD28 /// SNORD29 /// SNORD31 / Fold change (Aza/veh), C12orf56 (ProbeSet 11735607_a_at) / Fold change (ACY-1035/veh), C12orf56 (ProbeSet 11735607_a_at) / Fold change (Aza/veh), FGFR1OP (ProbeSet 11751329_s_at) / Fold change (ACY-1035/veh), FGFR1OP (ProbeSet 11751329_s_at) / Fold change (Aza/veh), VPS36 (ProbeSet 11739960_a_at) / Fold change (ACY-1035/veh), VPS36 (ProbeSet 11739960_a_at) / RFU SYPL1 (11715823_x_at) / Fold change /veh SYPL1 (11715823_x_at) / RFU IGFBP7 (11715501_s_at) / Fold change /veh IGFBP7 (11715501_s_at) / RFU REEP3 (11722064_at) / Fold change /veh REEP3 (11722064_at) / RFU IGLL1 (11728026_x_at) / Fold change /veh IGLL1 (11728026_x_at): dose or concentration left out as unconfirmed
Settings: ProbeSet 11749551_a_at; LIST B

Nc1ccc(-c2cccs2)cc1NC(=O)c1ccc2c(c1)cc(C1CC1)n2CCN1CCOCC1 [ACY-1035]
RFU, RNGTT: 53.54 RFU
